Non-standard residues stand in square brackets, D forms with d. Residues, ends and D or L forms follow the SMILES beside them. Dmt = Cc1cc(O)cc(C)c1C[C@H](N)C(=O)O
Columns and labels:
[1] = system: several mammalian cell types; conditions: energy-independent manner; cited from earlier work
[2] = system: rats with permanent coronary artery occlusion; assay: Deaths during 6 weeks treatment; assay type: in vivo, rat; conditions: 74 rats randomized to peptide or water
Procedure: Rats were anesthetized, ventilated, and a thoracotomy performed in the left 4th intercostal space. Temperature was maintained at 36° C. by placing the rats on a heating pad during the procedure. The pericardium was excised and the proximal left coronary artery isolated and permanently occluded with a suture. Coronary artery occlusion was confirmed by cyanosis and akinesis of the anterior wall of the ventricle. The chest was closed, air evacuated, and the rats allowed to recover. Analgesia was administered per the veterinarian. An echocardiogram was obtained at approximately 15 minutes post coronary artery occlusion. At 2 hours rats were randomized to receive chronic daily D-Arg-2′,6′-Dmt-Lys-Phe-NH2 (delivered subcutaneously by an Alzet Osmotic Pump—3 mg/kg/day) or water. […] Heart rate and blood pressure were measured. A Millar catheter was inserted into the left ventricle and LV systolic pressure, LV end diastolic pressure, +dP/dt, and −dP/dt were measured. […] Postmortem left ventricle volume was measured by filling the LV cavity with fluid and measuring the total fluid. […] Quantitative histologic analysis included: total circumference, scar circumference, non-infarcted wall circumference, total LV area, total LV cavity area, LV wall thickness (at several points), non-infarcted wall thickness; myocardial infarct expansion index. […]

| Compound | penetration of the plasma membrane [1] | deaths during the 6 weeks treatment [2] |
| --- | --- | --- |
| 2′,6′-Dmt-D-Arg-Phe-Lys-NH2 | readily penetrates | – |
| Cc1cc(O)cc(C)c1C[C@H](NC(=O)[C@H](N)CCCNC(=N)N)C(=O)N[C@@H](CCCCN)C(=O)N[C@@H](Cc1ccccc1)C(N)=O [D-Arg-2′,6′-Dmt-Lys-Phe-NH2] (H-[dR][Dmt]KF-NH2) | – | no rats died |
